Laboratory results taken from paper PMC467089, “Click estradiol dimers with novel aromatic bridging units: synthesis and anticancer evaluation” (Journal of Enzyme Inhibition and Medicinal Chemistry, 2024).
Like-named read-outs stand apart in the source and are kept apart here.

Legend:
CCRF-CEM lymphoblasts [1] = experiment: Cell cycle analysis by flow cytometry (propidium iodide); assay type: cell-based, human
Description: (§1) To further characterise the mode of action of studied compounds, we analysed the cell cycle profile of CCRF-CEM cells treated with compounds for 24 h. […] The compounds ED1–ED9 and ED12 induced arrest in G2/M phase of the cell cycle (Figure 2(A)). To differentiate between G2 block and mitotic arrest, we used phospho-histone H3 (Ser10) mitotic marker (Figure 2(B)). […] Generally, dimers induced a dose-dependent increase of sub G1 cell population with fragmented DNA except for ED2 and ED4 (Figure 2(C)). […] To assess the proliferation of treated cells, they were subjected to 5-bromo-2-deoxyuridine (BrDU) labelling. […] Analogously, changes in 5-bromouridine (BrU) incorporation were examined to monitor overall RNA synthesis.
(§2) Treated CCRF-CEM cells were harvested, washed with ice-cold phosphate-buffered saline (PBS), fixed in cold 70% ethanol and stored at −20 °C. Prior to analysis, fixed cells were permeabilised with 0.25% Triton X-100 in PBS for 15 min, blocked in 1% bovine serum, and incubated with anti-phospho-Histone H3 (Ser^10) antibody (Merck Millipore, Burlington, MA). Subsequently, the cells were treated with 50 μg/mL RNAse, stained with propidium iodide and analysed by FACSCalibur (Becton Dickinson, Franklin Lakes, NJ) flow cytometer at 488 nm. Cell cycle distribution (G1, S, and G2/M) was analysed using ModFitLT software (Verity, Topsham, ME), and reflects only viable population prior to the fixing procedure. Particles with lower propidium iodide content than G1 phase cells were classified as non-viable cells with fragmented DNA. Flow cytometry data visualisation was performed using OriginPro 2018b (b9.5.5.409) software (OriginLab Corporation, Northampton, MA)[10].

[2] = MTS cytotoxicity assay, HUVEC; assay type: cell-based; conditions: human
Description: (§3) The p53 deficient variant, HCT116p53−/−, was purchased from Horizon Discovery (Cambridge, UK). The daunorubicin-resistant CCRF-CEM cell line CEM-DNR bulk and paclitaxel-resistant K562-TAX sublines were developed in-house by exposing parental cell lines to escalating concentrations of daunorubicin and paclitaxel, respectively. Cells were maintained in the recommended culture medium (Sigma-Aldrich, St. Louis, MO) supplemented with 10% foetal calf serum, 100 U/mL penicillin, and 100 μg/mL streptomycin. The HUVEC line was obtained from PromoCell (Heidelberg, Germany). The cells were cultured in endothelial cell growth medium with SupplementMix for endothelial cells (PromoCell, Heidelberg, Germany). The incubation conditions were a humidified atmosphere of 95% air and 5% CO2 at 37 °C[10]. Cells were seeded in 384-well plates and after overnight incubation treated with compounds. All tested compounds were dissolved in 100% DMSO, and fourfold serial dilutions were performed using an Echo550 liquid handler (Labcyte, San Jose, CA). The experiments were performed in technical duplicates and three biological replicates. Cells were incubated with compounds for 72 h and thereafter 5 μL of MTS reagent was added to each well.

porcine brain tubulin = target: T1, porcine brain tubulin (Sus scrofa, UniProt P02550+P02554); experiment: Tubulin polymerisation assay; assay type: biochemical; conditions: 10 μmol/L, Vmax relative to DMSO
T1 construct: purchased Cytoskeleton, Denver, CO; host or cells: porcine brain (tissue-purified)
T1 sequence (P02550 whole entry): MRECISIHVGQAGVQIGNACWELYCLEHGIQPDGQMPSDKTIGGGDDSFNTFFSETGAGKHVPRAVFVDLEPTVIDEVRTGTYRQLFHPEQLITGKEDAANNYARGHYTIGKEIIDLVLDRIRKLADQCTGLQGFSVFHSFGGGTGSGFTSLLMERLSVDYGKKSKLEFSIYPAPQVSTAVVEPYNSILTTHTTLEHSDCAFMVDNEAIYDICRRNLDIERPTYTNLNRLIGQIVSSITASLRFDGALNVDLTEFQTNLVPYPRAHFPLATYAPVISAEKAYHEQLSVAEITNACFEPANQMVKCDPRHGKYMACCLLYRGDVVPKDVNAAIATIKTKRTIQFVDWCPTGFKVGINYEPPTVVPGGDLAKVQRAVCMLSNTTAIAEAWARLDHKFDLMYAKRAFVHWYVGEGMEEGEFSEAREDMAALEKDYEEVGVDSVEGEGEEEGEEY
T1 sequence (P02554 whole entry): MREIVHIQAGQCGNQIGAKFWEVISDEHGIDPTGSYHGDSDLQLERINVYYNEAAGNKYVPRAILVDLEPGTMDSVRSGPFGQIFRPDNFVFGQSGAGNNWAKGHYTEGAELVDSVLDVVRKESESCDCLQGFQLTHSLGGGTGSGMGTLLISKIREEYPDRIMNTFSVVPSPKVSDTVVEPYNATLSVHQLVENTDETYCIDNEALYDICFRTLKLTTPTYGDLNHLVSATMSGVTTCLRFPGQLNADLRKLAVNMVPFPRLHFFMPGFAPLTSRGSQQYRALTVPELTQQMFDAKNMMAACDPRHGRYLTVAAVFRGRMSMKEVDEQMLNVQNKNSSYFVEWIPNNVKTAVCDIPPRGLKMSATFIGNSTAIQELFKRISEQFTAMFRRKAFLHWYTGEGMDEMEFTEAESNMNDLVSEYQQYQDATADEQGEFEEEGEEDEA
Description: Tubulin polymerisation assay kit (Cytoskeleton, Denver, CO) was used according to the manufacturer’s instructions. Polymerisation of porcine brain tubulin (>99% purity) was measured using an EnVision Multilabel Plate Reader (PerkinElmer, Waltham, MA) at 37 °C, in the presence of either 10 μmol/L test compounds or DMSO. Maximum polymerisation velocity (Vmax) was calculated from the polymerisation curves. Data visualisation was performed in OriginPro 2018b (b9.5.5.409) software (OriginLab Corporation, Northampton, MA)[10].

CCRF-CEM lymphoblasts [3] = experiment: BrDU incorporation analysis (DNA synthesis); assay type: cell-based, human
Description: as §1
Thirty minutes before harvesting, cells were pulse-labelled with 10 μM BrDU. After overnight fixation in ice-cold 70% ethanol, cells were resuspended in 2 M HCl for 30 min at room temperature (RT), then washed with 0.1 M Na2B4O7 and blocked with PBS containing 0.5% Tween-20 and 1% BSA. BrDU incorporation was analysed using anti-BrdU antibody clone MoBu-1 (Exbio, Vestec, Czech Republic) and a secondary anti-mouse-FITC antibody (Sigma-Aldrich, St. Louis, MO). Cells were washed with PBS and stained with 0.1 mg/mL propidium iodide and 0.5 mg/mL RNase A for 1 h at RT and analysed by flow cytometry using a 488 nm single beam laser (FACSCalibur, Becton Dickinson, Franklin Lakes, NJ). The percentage of cells with incorporated BrDU was analysed using CellQuest software.

[4] = tested on: K562-TAX (paclitaxel-resistant variant of K562); experiment: MTS cytotoxicity assay, K562-TAX; assay type: cell-based, human; conditions: for IC50: Homo sapiens, K562-Tax, read-out: IC50 cytotoxic activity K562-TAX
Description: as §3

U2OS (osteosarcoma) = experiment: MTS cytotoxicity assay, U2OS; assay type: cell-based, human; conditions: Homo sapiens, U2OS, read-out: IC50 cytotoxic activity U2OS
Description: as §3

[5] = tested on: A549 (lung adenocarcinoma); experiment: MTS cytotoxicity assay, A549; assay type: cell-based, human; conditions: Homo sapiens, read-out: IC50 cytotoxic activity A549
Description: as §3

[6] = MTS cytotoxicity assay, MRC-5; assay type: cell-based; conditions: human
Description: as §3

[7] = tested on: K562 (chronic myelogenous leukaemia); experiment: MTS cytotoxicity assay, K562; assay type: cell-based; conditions: Homo sapiens, read-out: IC50 cytotoxic activity K562
Description: as §3

[8] = tested on: CEM-DNR (daunorubicin resistant variant of CCRF-CEM); experiment: MTS cytotoxicity assay, CEM-DNR; assay type: cell-based, human; conditions: Homo sapiens, CEM-DNR, read-out: IC50 cytotoxic activity CEM-DNR
Description: as §3

[9] = tested on: HCT116 (colorectal adenocarcinoma); experiment: MTS cytotoxicity assay, HCT116; assay type: cell-based; conditions: Homo sapiens, read-out: IC50 cytotoxic activity HCT116
Description: as §3

[10] = tested on: HCT116p53−/− (p53 gene null variant of HCT116); experiment: MTS cytotoxicity assay, HCT116p53−/−; assay type: cell-based; conditions: Homo sapiens, read-out: IC50 cytotoxic activity HCT116p53-
Description: as §3

CCRF-CEM lymphoblasts [11] = experiment: BrU incorporation analysis (RNA synthesis); assay type: cell-based, human
Description: as §1
Prior to the trypsinisation, cells were treated with 1 mM BrU for 30 min. Subsequently, the cells were fixed in 1% paraformaldehyde with 0.05% of NP-40 for 15 min at RT and stored overnight at 4 °C. Fixed cells were washed with 1% glycine in PBS and stained with primary anti-BrdU antibody clone MoBu-1 crossreacting with BrU (Exbio, Vestec, Czech Republic) for 30 min at RT, washed with PBS and labelled with secondary anti-mouse-FITC antibody (Sigma-Aldrich, St. Louis, MO). Following 1-h incubation in 1% paraformaldehyde containing 0.05% NP-40, cells were stained with propidium iodide (0.1 mg/mL) and treated with RNase A (0.5 mg/mL) for 1 h at RT. The percentage of BrU positive cells was quantified using CellQuest software.

[12] = MTS cytotoxicity assay, BJ; assay type: cell-based; conditions: human
Description: as §3

CCRF-CEM lymphoblasts [13] = experiment: Phospho-histone H3 (Ser10) mitotic marker, flow cytometry; assay type: cell-based, human
Description: as §1, §2

[14] = tested on: CCRF-CEM (childhood T-cell acute lymphoblastic leukaemia); experiment: MTS cytotoxicity assay, CCRF-CEM; assay type: cell-based; conditions: Homo sapiens, read-out: IC50 cytotoxic activity CCRF-CEM
Description: as §3

[15] = MTS assay, 72-h incubation, mean ± SD of 3 independent experiments
[16] = HCT-116, MTS assay, 72-h incubation, mean ± SD of 3 independent experiments

| Compound | <G1 (sub-G1, fragmented DNA), % of positive cells (CCRF-CEM lymphoblasts [1]; 1×IC50, 24 h) | >G2/M (polyploidy), % of positive cells (CCRF-CEM lymphoblasts [1]; 1×IC50, 24 h) | G0/G1, % of positive cells (CCRF-CEM lymphoblasts [1]; 1×IC50, 24 h) | G2/M, % of positive cells (CCRF-CEM lymphoblasts [1]; 1×IC50, 24 h) | S, % of positive cells (CCRF-CEM lymphoblasts [1]; 1×IC50, 24 h) | <G1 (sub-G1, fragmented DNA), % of positive cells (CCRF-CEM lymphoblasts [1]; 5×IC50, 24 h) | >G2/M (polyploidy), % of positive cells (CCRF-CEM lymphoblasts [1]; 5×IC50, 24 h) | G0/G1, % of positive cells (CCRF-CEM lymphoblasts [1]; 5×IC50, 24 h) | G2/M, % of positive cells (CCRF-CEM lymphoblasts [1]; 5×IC50, 24 h) | S, % of positive cells (CCRF-CEM lymphoblasts [1]; 5×IC50, 24 h) | IC50 at 72 h [2] | inhibitory activity against tubulin polymerisation (in words) (porcine brain tubulin) | BrDU, % of positive cells (CCRF-CEM lymphoblasts [3]; 1×IC50, 24 h) | BrDU, % of positive cells (CCRF-CEM lymphoblasts [3]; 5×IC50, 24 h) | IC50 ([4]; 72 h) | IC50 (U2OS (osteosarcoma); 72 h) | BrU, % of positive cells (CCRF-CEM lymphoblasts [11]; 1×IC50, 24 h) | BrU, % of positive cells (CCRF-CEM lymphoblasts [11]; 5×IC50, 24 h) | pH3Ser10, % of positive cells (CCRF-CEM lymphoblasts [13]; 1×IC50, 24 h) | pH3Ser10, % of positive cells (CCRF-CEM lymphoblasts [13]; 5×IC50, 24 h) | also measured |
| --- | --- | --- | --- | --- | --- | --- | --- | --- | --- | --- | --- | --- | --- | --- | --- | --- | --- | --- | --- | --- | --- |
| C[C@]12CC[C@@H]3c4ccc(O)cc4CC[C@H]3[C@@H]1CC[C@@]2(O)c1cn(Cc2cccc(Cn3cc([C@]4(O)CC[C@H]5[C@@H]6CCc7cc(O)ccc7[C@H]6CC[C@@]54C)nn3)c2)nn1 [ED1, (17β,17′β)-17,17′-[Benzene-1,3-diylbis(methanediyl-1H-1,2,3-triazole-1,4-diyl)]bisestra-1,3,5(10)-triene-3,17-diol] | 55.53% | 10.7% | 0.28% | 74.70% | 25.01% | 64.75% | 17.65% | 0.27% | 75.07% | 24.67% | 13.5 ± 2 nM | comparable or better inhibitory activity | 38.15% | 6.70% | 1580 ± 160 nM | 1950 ± 440 nM | 48.16% | 31.42% | 61.09% | 64.45% | IC50 cytotoxic activity K562-TAX [4]: sensitive; IC50 ([5]; A549, 72 h): 1680 ± 200 nM; IC50 at 72 h [6]: > 50000 nM; IC50 ([7]; K562, 72 h): 1630 ± 120 nM; IC50 ([8]; 72 h): > 50000 nM; IC50 ([9]; HCT-116, 72 h): 1410 ± 300 nM; IC50 ([10]; HCT-116, 72 h): 1500 ± 320 nM; IC50 at 72 h [12]: > 50000 nM; IC50 ([14]; 72 h): 1600 ± 270 nM |
| Cc1cc(C)c(Cn2cc([C@]3(O)CC[C@H]4[C@@H]5CCc6cc(O)ccc6[C@H]5CC[C@@]43C)nn2)cc1Cn1cc([C@]2(O)CC[C@H]3[C@@H]4CCc5cc(O)ccc5[C@H]4CC[C@@]32C)nn1 [ED9, 17,17′-[(4,6-Dimethyl-1,3-phenylene)bis(methylene-1H-1,2,3-triazole-1,4-diyl)]di[estra-1,3,5(10)-triene-3,17β-diol]] | 3.92% | 13.86% | 38.18% | 23.92% | 37.90% | 11.48% | 17.77% | 4.31% | 68.38% | 27.32% | 38 ± 11 nM | comparable or better inhibitory activity | 46.72% | 8.89% | > 50000 nM | 5260 ± 1690 nM | 23.92% | 38.94% | 8.42% | 41.35% | IC50 ([5]; A549, 72 h): > 50000 nM; IC50 at 72 h [6]: 3200 ± 890 nM; IC50 ([7]; K562, 72 h): 1270 ± 120 nM; IC50 ([8]; 72 h): > 50000 nM; IC50 ([9]; HCT-116, 72 h): 2020 ± 300 nM; IC50 ([10]; HCT-116, 72 h): 1960 ± 260 nM; IC50 at 72 h [12]: > 50000 nM; IC50 ([14]; 72 h): 1690 ± 57 nM |
| COc1cc2c(cc1O)CC[C@@H]1[C@@H]2CC[C@]2(C)[C@@H](O)CC[C@@H]12 [ME, 2-methoxyestradiol, reference compound] | 23.97% | 6.2% | 31.50% | 28.85% | 39.65% | 65.32% | 10.4% | 1.19% | 84.03% | 14.77% |  |  | 9.31% | 9.49% |  |  | 23.60% | 46.10% | 17.74% | 67.40% | IC50 at 72 h ([2]; HUVEC cells (umbilical vein endothelial cells), MTS assay, 72-h incubation, mean ± SD of 3 independent experiments, read-out: IC50 cytotoxic activity HUVEC): 1070 ± 180 nM; IC50 [4, 15]: 1320 ± 200 nM; IC50 (U2OS (osteosarcoma); [15]): 2130 ± 300 nM; IC50 ([5]; A549, MTS assay, 72-h incubation, mean ± SD of 3 independent experiments): 2260 ± 150 nM; IC50 at 72 h ([6]; MRC-5 cells (non-tumour fibroblasts), MTS assay, 72-h incubation, mean ± SD of 3 independent experiments, read-out: IC50 cytotoxic activity MRC-5): > 50000 nM; IC50 ([7]; K562, MTS assay, 72-h incubation, mean ± SD of 3 independent experiments): 1430 ± 390 nM; IC50 [8, 15]: 1610 ± 200 nM; IC50 [9, 16]: 1580 ± 250 nM; IC50 [10, 16]: 1990 ± 410 nM; IC50 at 72 h ([12]; BJ cells (non-tumour skin fibroblasts), MTS assay, 72-h incubation, mean ± SD of 3 independent experiments, read-out: IC50 cytotoxic activity BJ): > 50000 nM; IC50 [14, 15]: 1610 ± 97 nM |
